The source of these data is ChEMBL document CHEMBL5465560, “Selectivity Literature for EUbOPEN Chemogenomic Library” (2024).

Test [1] has as its target Mitogen-activated protein kinase kinase kinase kinase 1 (Homo sapiens) (UniProt Q92918). To be noted: at 10 µM.
Test [2] concerns the target T1, Serine/threonine-protein kinase BRSK2 (Homo sapiens) (UniProt Q8IWQ3).
T1 sequence (whole entry): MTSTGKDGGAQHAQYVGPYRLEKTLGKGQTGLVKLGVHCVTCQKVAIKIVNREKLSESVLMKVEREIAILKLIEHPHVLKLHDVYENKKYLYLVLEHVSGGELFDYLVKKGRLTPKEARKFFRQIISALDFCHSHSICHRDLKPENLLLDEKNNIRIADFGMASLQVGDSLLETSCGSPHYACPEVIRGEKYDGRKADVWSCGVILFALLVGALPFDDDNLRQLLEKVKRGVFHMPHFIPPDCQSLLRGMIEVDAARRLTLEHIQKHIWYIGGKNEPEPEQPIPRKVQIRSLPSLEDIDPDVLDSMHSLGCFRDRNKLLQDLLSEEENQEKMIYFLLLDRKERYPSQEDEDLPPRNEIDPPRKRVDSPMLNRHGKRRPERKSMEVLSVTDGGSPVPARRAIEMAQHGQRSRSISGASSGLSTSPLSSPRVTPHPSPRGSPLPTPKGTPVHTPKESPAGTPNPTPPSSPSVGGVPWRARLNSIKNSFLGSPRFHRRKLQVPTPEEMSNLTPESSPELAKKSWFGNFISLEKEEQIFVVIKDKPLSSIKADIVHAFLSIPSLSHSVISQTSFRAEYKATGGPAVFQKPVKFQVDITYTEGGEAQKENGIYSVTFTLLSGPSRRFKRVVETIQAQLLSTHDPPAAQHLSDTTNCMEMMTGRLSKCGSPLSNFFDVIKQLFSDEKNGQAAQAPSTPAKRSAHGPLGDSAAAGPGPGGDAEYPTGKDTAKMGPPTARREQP
As to the kind of experiment: Selectivity interaction (KinomeScan (DiscoverX)) EUB0001079a BRSK2. To be noted: at 1 µM.

Test [3] deals with Serine/threonine-protein kinase N1 (Homo sapiens, UniProt Q16512). As to the kind of experiment: Selectivity interaction (KinomeScan (DiscoverX)) EUB0001079a PKN1. To be noted: at 1 µM.
Chain of Serine/threonine-protein kinase N1 (Q16512 2-942 limits assumed): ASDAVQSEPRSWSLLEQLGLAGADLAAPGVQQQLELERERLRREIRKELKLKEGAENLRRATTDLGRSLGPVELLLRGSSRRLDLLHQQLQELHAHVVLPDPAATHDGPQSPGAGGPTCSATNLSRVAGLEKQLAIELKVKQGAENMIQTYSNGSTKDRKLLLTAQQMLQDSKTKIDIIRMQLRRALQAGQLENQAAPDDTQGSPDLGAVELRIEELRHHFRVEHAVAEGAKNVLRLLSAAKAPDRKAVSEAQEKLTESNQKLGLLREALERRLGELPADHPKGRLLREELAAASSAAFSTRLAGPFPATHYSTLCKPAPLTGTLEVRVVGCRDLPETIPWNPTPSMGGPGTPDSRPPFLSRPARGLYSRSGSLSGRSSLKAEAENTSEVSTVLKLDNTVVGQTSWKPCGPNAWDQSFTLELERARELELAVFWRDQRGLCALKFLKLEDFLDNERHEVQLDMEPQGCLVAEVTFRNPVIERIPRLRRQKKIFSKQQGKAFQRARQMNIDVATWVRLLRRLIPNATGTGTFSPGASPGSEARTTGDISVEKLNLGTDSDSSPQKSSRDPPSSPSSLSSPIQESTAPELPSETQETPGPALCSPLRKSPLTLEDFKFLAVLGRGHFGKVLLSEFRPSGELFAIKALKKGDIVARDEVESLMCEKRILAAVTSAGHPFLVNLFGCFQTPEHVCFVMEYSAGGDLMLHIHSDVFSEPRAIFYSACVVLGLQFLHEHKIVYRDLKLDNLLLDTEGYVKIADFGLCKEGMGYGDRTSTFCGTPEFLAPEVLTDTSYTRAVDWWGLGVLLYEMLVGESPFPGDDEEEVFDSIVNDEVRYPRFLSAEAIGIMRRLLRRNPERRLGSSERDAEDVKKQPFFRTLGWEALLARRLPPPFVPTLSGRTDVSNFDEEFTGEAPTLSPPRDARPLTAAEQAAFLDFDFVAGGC
Test [4] addresses Calcium/calmodulin-dependent protein kinase type 1D (Homo sapiens) (UniProt Q8IU85). The test can be described thus: Selectivity interaction (KinomeScan (DiscoverX)) EUB0001049a CAMK1D. As to conditions: at 1 µM.
In the next test the target is Activated CDC42 kinase 1 (Homo sapiens, UniProt Q07912). The test can be described thus: Selectivity interaction (KinomeScan (DiscoverX)) EUB0000695a TNK2. To be noted: at 100 nM.
For test [5], the target named is T2, MAP/microtubule affinity-regulating kinase 4 (Homo sapiens) (UniProt Q96L34).
T2 sequence (whole entry): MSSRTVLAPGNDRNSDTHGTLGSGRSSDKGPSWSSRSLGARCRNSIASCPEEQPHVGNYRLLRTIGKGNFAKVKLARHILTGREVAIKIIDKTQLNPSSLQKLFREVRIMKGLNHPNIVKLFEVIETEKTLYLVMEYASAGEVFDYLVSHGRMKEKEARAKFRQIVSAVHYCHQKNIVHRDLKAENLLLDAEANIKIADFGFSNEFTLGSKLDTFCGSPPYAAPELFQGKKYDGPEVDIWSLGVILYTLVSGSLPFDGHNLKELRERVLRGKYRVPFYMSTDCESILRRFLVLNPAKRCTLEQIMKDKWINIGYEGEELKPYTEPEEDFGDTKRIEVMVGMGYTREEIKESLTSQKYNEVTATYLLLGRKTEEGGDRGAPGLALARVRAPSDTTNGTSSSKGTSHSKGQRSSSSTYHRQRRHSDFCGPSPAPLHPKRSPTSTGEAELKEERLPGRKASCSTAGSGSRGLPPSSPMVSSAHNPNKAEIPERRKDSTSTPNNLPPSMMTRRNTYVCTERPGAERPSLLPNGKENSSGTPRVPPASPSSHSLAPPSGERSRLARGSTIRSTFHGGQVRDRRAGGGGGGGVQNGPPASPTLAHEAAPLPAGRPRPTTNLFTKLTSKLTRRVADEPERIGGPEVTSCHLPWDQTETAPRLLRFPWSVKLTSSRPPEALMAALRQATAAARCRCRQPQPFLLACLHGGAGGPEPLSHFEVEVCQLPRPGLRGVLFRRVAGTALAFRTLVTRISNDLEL
The test can be described thus: Selectivity interaction (KinomeScan (DiscoverX)) EUB0000695a MARK4. As to conditions: at 100 nM.

The target in test [6] is T3, Tyrosine-protein kinase ZAP-70 (Homo sapiens) (UniProt P43403).
T3 sequence (whole entry): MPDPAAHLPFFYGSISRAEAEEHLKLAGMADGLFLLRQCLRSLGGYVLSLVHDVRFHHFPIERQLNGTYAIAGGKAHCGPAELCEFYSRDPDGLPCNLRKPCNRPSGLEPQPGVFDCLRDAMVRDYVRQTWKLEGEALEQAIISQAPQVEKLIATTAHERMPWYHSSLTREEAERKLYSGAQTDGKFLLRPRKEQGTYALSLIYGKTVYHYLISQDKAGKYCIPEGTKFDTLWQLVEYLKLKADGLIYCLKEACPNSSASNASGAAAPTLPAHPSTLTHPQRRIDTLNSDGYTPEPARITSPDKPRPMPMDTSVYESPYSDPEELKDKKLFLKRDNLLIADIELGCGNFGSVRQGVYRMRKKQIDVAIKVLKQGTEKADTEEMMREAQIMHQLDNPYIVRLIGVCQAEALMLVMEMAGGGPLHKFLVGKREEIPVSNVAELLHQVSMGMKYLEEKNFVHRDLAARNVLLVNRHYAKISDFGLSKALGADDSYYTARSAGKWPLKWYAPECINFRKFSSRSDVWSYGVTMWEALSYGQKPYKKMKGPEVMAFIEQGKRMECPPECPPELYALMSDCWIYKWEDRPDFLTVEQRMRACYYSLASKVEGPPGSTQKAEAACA
As to the kind of experiment: Selectivity interaction (KinomeScan (DiscoverX)) EUB0000045b ZAP70. To be noted: at 1 µM.

Test [7] deals with Non-receptor tyrosine-protein kinase TYK2 (Homo sapiens, UniProt P29597). As to the kind of experiment: Selectivity interaction (Kinase panel (Z-LYTE Assay)) EUB0001632a TYK2. As to conditions: at 10 µM.
Chain of Non-receptor tyrosine-protein kinase TYK2 (P29597 whole entry): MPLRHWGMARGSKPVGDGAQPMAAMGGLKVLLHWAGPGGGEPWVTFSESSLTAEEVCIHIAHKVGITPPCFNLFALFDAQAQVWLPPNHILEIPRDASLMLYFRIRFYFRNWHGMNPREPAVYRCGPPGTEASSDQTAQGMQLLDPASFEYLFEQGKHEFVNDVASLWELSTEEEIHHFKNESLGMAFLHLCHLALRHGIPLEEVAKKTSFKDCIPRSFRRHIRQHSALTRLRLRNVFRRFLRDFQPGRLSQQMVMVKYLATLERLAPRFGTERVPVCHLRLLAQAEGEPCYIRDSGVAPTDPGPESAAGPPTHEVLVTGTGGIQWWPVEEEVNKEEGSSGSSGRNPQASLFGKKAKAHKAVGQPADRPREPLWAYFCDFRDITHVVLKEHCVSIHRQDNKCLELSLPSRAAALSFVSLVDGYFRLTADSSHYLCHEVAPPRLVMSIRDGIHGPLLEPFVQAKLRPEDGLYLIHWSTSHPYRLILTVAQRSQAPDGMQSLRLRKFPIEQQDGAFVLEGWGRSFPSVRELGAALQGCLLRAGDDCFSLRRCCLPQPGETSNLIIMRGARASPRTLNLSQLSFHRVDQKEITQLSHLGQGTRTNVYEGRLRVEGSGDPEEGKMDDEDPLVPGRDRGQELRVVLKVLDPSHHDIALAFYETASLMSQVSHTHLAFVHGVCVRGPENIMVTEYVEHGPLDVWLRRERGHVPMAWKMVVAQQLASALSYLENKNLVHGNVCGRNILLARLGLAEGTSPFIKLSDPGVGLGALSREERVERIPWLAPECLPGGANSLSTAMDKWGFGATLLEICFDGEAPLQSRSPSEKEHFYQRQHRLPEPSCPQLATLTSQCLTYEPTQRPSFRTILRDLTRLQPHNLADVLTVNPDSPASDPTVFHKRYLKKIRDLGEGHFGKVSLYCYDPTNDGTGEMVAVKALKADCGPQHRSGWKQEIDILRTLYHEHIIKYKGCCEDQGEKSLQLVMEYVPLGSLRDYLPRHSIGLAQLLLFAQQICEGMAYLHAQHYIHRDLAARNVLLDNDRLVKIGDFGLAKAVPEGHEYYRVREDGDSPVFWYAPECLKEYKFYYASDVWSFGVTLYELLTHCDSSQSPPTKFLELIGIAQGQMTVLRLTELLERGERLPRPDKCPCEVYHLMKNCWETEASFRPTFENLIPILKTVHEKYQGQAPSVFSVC
Test [8] addresses Phosphatidylinositol 4-kinase alpha (Homo sapiens, UniProt P42356). The test can be described thus: Selectivity interaction (Kinase panel (literature)) EUB0001199aCl PI4KA. To be noted: at 1 µM.

Chain of Calcium/calmodulin-dependent protein kinase type 1D (Homo sapiens) (Q8IU85 whole entry, looked up): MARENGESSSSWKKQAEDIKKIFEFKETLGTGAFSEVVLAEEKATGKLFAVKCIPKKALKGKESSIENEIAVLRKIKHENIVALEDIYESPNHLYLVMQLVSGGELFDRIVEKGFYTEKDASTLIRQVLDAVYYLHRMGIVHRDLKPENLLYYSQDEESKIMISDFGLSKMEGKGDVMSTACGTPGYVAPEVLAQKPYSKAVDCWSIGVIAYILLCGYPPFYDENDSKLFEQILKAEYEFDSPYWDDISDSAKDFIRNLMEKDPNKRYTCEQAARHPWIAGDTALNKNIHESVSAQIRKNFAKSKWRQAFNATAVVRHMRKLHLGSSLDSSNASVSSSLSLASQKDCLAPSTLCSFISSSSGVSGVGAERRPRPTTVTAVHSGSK
Chain of Phosphatidylinositol 4-kinase alpha (P42356 whole entry, looked up): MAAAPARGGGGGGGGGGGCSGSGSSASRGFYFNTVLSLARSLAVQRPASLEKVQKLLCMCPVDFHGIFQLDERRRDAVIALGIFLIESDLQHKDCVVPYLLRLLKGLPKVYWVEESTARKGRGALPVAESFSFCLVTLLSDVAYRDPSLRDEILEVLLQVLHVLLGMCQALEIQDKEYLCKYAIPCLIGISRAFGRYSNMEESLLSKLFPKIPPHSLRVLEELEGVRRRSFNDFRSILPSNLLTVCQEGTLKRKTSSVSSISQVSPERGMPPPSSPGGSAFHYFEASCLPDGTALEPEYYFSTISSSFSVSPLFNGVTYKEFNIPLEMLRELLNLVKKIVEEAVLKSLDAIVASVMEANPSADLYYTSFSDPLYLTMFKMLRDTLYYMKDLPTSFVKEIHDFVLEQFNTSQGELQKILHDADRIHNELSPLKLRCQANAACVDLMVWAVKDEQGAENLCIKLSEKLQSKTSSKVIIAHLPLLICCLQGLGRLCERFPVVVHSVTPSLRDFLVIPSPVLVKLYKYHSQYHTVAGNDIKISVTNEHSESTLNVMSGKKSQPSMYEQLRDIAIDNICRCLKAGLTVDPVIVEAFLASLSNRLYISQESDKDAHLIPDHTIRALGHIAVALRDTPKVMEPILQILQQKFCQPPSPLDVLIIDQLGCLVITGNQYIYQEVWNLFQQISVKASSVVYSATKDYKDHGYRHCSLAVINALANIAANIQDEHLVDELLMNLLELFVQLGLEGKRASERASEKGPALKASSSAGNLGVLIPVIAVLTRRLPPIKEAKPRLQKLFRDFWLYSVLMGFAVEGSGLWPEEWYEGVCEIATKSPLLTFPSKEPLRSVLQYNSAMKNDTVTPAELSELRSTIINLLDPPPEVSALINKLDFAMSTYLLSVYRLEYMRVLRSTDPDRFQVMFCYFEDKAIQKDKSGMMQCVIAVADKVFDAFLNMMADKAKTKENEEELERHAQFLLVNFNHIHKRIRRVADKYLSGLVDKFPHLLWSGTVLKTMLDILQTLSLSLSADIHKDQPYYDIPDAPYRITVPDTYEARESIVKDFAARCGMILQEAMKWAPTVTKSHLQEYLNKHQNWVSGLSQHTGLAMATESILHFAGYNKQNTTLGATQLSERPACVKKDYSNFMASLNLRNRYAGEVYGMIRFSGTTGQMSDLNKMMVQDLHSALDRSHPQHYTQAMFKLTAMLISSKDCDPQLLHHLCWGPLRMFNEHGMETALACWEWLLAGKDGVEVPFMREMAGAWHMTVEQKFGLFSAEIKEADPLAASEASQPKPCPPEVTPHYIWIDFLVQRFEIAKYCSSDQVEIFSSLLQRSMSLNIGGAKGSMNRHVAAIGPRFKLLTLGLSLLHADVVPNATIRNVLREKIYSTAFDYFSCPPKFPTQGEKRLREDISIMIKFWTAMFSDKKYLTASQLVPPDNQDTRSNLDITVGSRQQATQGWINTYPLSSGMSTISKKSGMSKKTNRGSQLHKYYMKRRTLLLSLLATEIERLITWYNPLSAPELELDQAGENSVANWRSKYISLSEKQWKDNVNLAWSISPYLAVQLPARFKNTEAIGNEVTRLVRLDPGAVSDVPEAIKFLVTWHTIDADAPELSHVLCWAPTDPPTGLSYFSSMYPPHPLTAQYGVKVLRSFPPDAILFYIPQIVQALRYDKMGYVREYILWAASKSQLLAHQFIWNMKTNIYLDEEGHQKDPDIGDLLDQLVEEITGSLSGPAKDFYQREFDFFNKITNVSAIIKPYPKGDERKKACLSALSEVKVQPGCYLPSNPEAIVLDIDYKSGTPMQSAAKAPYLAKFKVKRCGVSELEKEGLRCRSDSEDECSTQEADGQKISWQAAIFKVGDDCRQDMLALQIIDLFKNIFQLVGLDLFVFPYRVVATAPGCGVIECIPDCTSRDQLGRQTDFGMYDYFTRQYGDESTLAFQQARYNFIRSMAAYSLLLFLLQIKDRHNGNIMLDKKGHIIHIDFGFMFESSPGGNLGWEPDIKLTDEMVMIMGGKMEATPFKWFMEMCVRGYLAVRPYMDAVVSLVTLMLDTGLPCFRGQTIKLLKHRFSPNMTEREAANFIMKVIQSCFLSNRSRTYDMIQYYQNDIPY

In the case of `CCN(CC)CCCCNc1ncc2cc(-c3cc(OC)cc(OC)c3)c(NC(=O)NC(C)(C)C)nc2n1`, in test [1], the % of control came out at 100%.
Turning to `Nc1cnc(N2CCc3cc(S(=O)(=O)Nc4c(F)cc(Cl)cc4F)cc(N4CCCC4=O)c32)nc1` [TP-020n], the values for the % of control in test [2] and in test [3] were 80% and 95%, respectively.
Take `COc1cc(Nc2nc(C)cc(-c3cnn4nc(OC)ccc34)n2)cc(C(F)(F)F)c1`: the % of control in test [4] came out at 84%.
For `Cc1cc(F)c(C(=O)Nc2cccc(-c3nncn3C(C)C)n2)cc1-n1cnc(C2CC2)c1`, the % of control at Activated CDC42 kinase 1 amounted to 98%; in [5], 100%.
`C=CC(=O)Nc1cc(-n2c(=O)ccc3cnc4ccc(-c5ccc(NS(C)(=O)=O)cc5)cc4c32)ccc1C` came in with a % of control in test [6] of 91%.
As for `Cn1cc(-n2cnc3c(NCc4nc5cc(Cl)c(Cl)cc5[nH]4)nc(N4CCOCC4)nc32)cn1`, the % of control in test [7] came out at 2.01%.
Consider `CN1Cc2nccc(-c3cn(C)nc3-c3ccc(F)cc3)c2C1=O`, for which the % of inhibition in [8] is -13%.
